From patent US20240418626A1, “METHOD, DEVICE, AND SYSTEM FOR CELL IDENTIFICATION” (Ruixin (Fuzhou) Technology Co., Ltd., priority 2021, published 2024)

Experiments:
Format in all cases: cell-based
A549 cells [1] = test: Cell vitality reflected by cellular traction force in A549 cells treated with 5-FU; conditions: for time of significant decrease in cellular traction force: FIG. 11C
Method: (§1) Specifically, in the present embodiment, non-small cell lung cancer A549 cells are cultured on multiple cellular traction force detection devices, and then are treated with various doses of cell proliferation inhibitor 5-fluorouracil (5-FU). Subsequently, the cellular traction forces at different time are monitored by using the cellular identification system described in the twentieth embodiment. Cell proliferation and cytotoxicity are monitored using the CCK-8 kit, with cell vitality measured by the MTT assay serving as a control group, yielding the data for FIGS. 11B and 11C.

A549 cells [2] = test: Cell vitality by MTT assay in A549 cells treated with 5-FU
Method: as §1

[3] = tested on: Breast cancer cells MCF-7 tumor cell aggregates; test: 5-Fu drug sensitivity of tumor cell aggregates on the cellular traction force detection device; conditions: MCF-7 aggregates, 200 μM, cultured for one day, FIGS. 13A and 13B
Method: S1, Generation of tumor cell aggregates: FN 50 μg/mL is coated on the top of the micro-/nano-pillars of the cellular traction force detection device and sterilized with UV light for 30 minutes. Breast cancer cells MCF-7 (approximately 1×10^5 to 9×10^5 cells) are seeded on the surface of the micro-/nano-pillars of the cellular traction force detection device (number of micro-/nano-pillars not limited) and then cultured in 3dGRO™ Spheroid Medium (S3077) for more than three days to guide the formation of tumor cell aggregates.
S2, Applying the generated tumor cell aggregates to 5-Fu drug sensitivity experiments: 200 μM of 5-Fu is added to the tumor cell aggregates and cultured for one day. In the experiment, cellular traction force detection devices with tumor cell aggregates (along with the culture medium) before and after the addition of 5-Fu are monitored using the information acquisition unit (CCD sensor) within the cellular identification device to capture light reflection signals.

[4] = various doses of 5-FU, FIGS. 11B and 11C

For O=c1[nH]cc(F)c(=O)[nH]1 [5-FU, 5-fluorouracil], the “time of significant decrease in cellular traction force” value (A549 cells [1]; 0.5 μM treatment dose) was 6 h, the “time of significant decrease in cellular traction force” value (A549 cells [1]; 1 μM treatment dose) was 3 h and the “cellular vitality as reflected by traction forces compared to control group DMSO” value (A549 cells [1]; different doses, treatment for 24 hours, FIG. 11B) was “decreases more significantly”. The “cell vitality reflected by cellular traction forces” value (A549 cells [1]; [4]) was “dose-dependent decrease”, the “changes in cell vitality measured by the MTT assay” value (A549 cells [2]; after 12 hours of treatment, FIG. 11C) was “not noticeable” and the “cell vitality measured by the traditional MTT assay” value (A549 cells [2]; [4]) was “dose-dependent decrease”. For the same compound, the “reflection signals of tumor cell aggregates after treatment” value [3] was “significantly weaken”.
